Species on record: Rattus norvegicus
Test: Open TG-GATES - Regimen: Daily Repeat
Type: toxicity, organism-based, Sprague-Dawley
Design: regimen Daily Repeat, gender Male, age 6 weeks
Settings: in vivo, po, 0 mg/kg, route gavage, dose level Control; for APTT / Bas / Eos / Fbg / Hb / Ht / Lym / MCH / MCHC / MCV / Mono / Neu / PT / Plat / RBC / Ret / WBC: tissue Blood; for KIDNEY_L / KIDNEY_R / KIDNEY_TOTAL: tissue Kidney; for LIVER: tissue Liver; for A/G / ALP / ALT / AST / BUN / CRE / Ca / Cl / DBIL / GLC / IP / K / LDH / Na / PL / RALB / TBIL / TC / TG / TP / gamma-GTP: tissue Plasma

Cc1cccc(C)c1OCC(C)N (configuration not stated) [MEXILETINE] gave a TERMINAL_BW (72 h, time 3 day) of 240.8 g, an APTT (72 h, time 3 day) of 20.3 s and a Bas (72 h, time 3 day) of 0%. It also gave an Eos (72 h, time 3 day) of 0.8%, a Fbg (72 h, time 3 day) of 302.4 mg/dL and a Hb (72 h, time 3 day) of 12.6 g/dL. The Ht (72 h, time 3 day) was 39.4%, the Lym (72 h, time 3 day) was 81.6% and the MCH (72 h, time 3 day) was 19.9 pg. It also gave an MCHC (72 h, time 3 day) of 32.1%, an MCV (72 h, time 3 day) of 61.9 fL and a Mono (72 h, time 3 day) of 2.8%. It also gave a Neu (72 h, time 3 day) of 13.8%, a PT (72 h, time 3 day) of 15.8 s and a Plat (72 h, time 3 day) of 115 x10_4/uL. It also gave an RBC (72 h, time 3 day) of 636.6 x10_4/ul, a Ret (72 h, time 3 day) of 6.3% and a WBC (72 h, time 3 day) of 120.4 x10_2/uL. It also gave a KIDNEY_L (72 h, time 3 day) of 1.1 g, a KIDNEY_R (72 h, time 3 day) of 1.1 g and a KIDNEY_TOTAL (72 h, time 3 day) of 2.2 g. For the same compound, the LIVER (72 h, time 3 day) was 11.2 g, the A/G (72 h, time 3 day) was 1.3 and the ALP (72 h, time 3 day) was 1769.2 IU/L. For the same compound, the ALT (72 h, time 3 day) was 44.8 IU/L, the AST (72 h, time 3 day) was 72.2 IU/L and the BUN (72 h, time 3 day) was 15.6 mg/dL. For the same compound, the CRE (72 h, time 3 day) was 0.1 mg/dL, the Ca (72 h, time 3 day) was 10.4 mg/dL and the Cl (72 h, time 3 day) was 106 meq/L. For the same compound, the DBIL (72 h, time 3 day) was 0 mg/dL, the GLC (72 h, time 3 day) was 201.2 mg/dL and the IP (72 h, time 3 day) was 7.6 mg/dL. For the same compound, the K (72 h, time 3 day) was 4.4 meq/L, the LDH (72 h, time 3 day) was 178 IU/L and the Na (72 h, time 3 day) was 142 meq/L. For the same compound, the PL (72 h, time 3 day) was 134 mg/dL, the RALB (72 h, time 3 day) was 3 g/dL and the TBIL (72 h, time 3 day) was 0.008 mg/dL. The TC (72 h, time 3 day) was 73.2 mg/dL, the TG (72 h, time 3 day) was 69.6 mg/dL and the TP (72 h, time 3 day) was 5.4 g/dL. The gamma-GTP (72 h, time 3 day) was 2.2 IU/L, the TERMINAL_BW ([…], time 7 day) was 274.3 g and the TERMINAL_BW ([…], time 14 day) was 321.8 g. The TERMINAL_BW ([…], time 28 day) was 408.3 g, the APTT ([…], time 7 day) was 23.4 s and the Bas ([…], time 7 day) was 0%. It also gave an Eos ([…], time 7 day) of 1%, a Fbg ([…], time 7 day) of 300 mg/dL and a Hb ([…], time 7 day) of 12.9 g/dL. It also gave a Ht ([…], time 7 day) of 39.7%, a Lym ([…], time 7 day) of 77.8% and an MCH ([…], time 7 day) of 20.4 pg. It also gave an MCHC ([…], time 7 day) of 32.5%, an MCV ([…], time 7 day) of 62.4 fL and a Mono ([…], time 7 day) of 2.8%. It also gave a Neu ([…], time 7 day) of 17.4%, a PT ([…], time 7 day) of 15.9 s and a Plat ([…], time 7 day) of 106.5 x10_4/uL. It also gave an RBC ([…], time 7 day) of 637.2 x10_4/ul, a Ret ([…], time 7 day) of 6% and a WBC ([…], time 7 day) of 115.8 x10_2/uL. For the same compound, the APTT ([…], time 14 day) was 22.2 s, the Bas ([…], time 14 day) was 0% and the Eos ([…], time 14 day) was 0.8%. For the same compound, the Fbg ([…], time 14 day) was 310.6 mg/dL, the Hb ([…], time 14 day) was 12.8 g/dL and the Ht ([…], time 14 day) was 39.4%. The Lym ([…], time 14 day) was 80.6%, the MCH ([…], time 14 day) was 21 pg and the MCHC ([…], time 14 day) was 32.4%. The MCV ([…], time 14 day) was 64.8 fL, the Mono ([…], time 14 day) was 1.8% and the Neu ([…], time 14 day) was 16.2%. It also gave a PT ([…], time 14 day) of 16.1 s, a Plat ([…], time 14 day) of 107.7 x10_4/uL and an RBC ([…], time 14 day) of 608.6 x10_4/ul. For the same compound, the Ret ([…], time 14 day) was 8.8%, the WBC ([…], time 14 day) was 96.5 x10_2/uL and the APTT ([…], time 28 day) was 25.3 s. For the same compound, the Bas ([…], time 28 day) was 0%, the Eos ([…], time 28 day) was 1% and the Fbg ([…], time 28 day) was 307.6 mg/dL. It also gave a Hb ([…], time 28 day) of 14.8 g/dL, a Ht ([…], time 28 day) of 43.5% and a Lym ([…], time 28 day) of 83.2%. The MCH ([…], time 28 day) was 19.2 pg, the MCHC ([…], time 28 day) was 34.1% and the MCV ([…], time 28 day) was 56.3 fL. The Mono ([…], time 28 day) was 1.6%, the Neu ([…], time 28 day) was 13.8% and the PT ([…], time 28 day) was 16.1 s. It also gave a Plat ([…], time 28 day) of 91.8 x10_4/uL, an RBC ([…], time 28 day) of 774.2 x10_4/ul and a Ret ([…], time 28 day) of 2.9%. It also gave a WBC ([…], time 28 day) of 104.4 x10_2/uL, a KIDNEY_L ([…], time 7 day) of 1.2 g and a KIDNEY_R ([…], time 7 day) of 1.2 g. The KIDNEY_TOTAL ([…], time 7 day) was 2.3 g, the KIDNEY_L ([…], time 14 day) was 1.3 g and the KIDNEY_R ([…], time 14 day) was 1.3 g. The KIDNEY_TOTAL ([…], time 14 day) was 2.5 g, the KIDNEY_L ([…], time 28 day) was 1.4 g and the KIDNEY_R ([…], time 28 day) was 1.5 g. For the same compound, the KIDNEY_TOTAL ([…], time 28 day) was 2.9 g, the LIVER ([…], time 7 day) was 13.3 g and the LIVER ([…], time 14 day) was 14.2 g. It also gave an LIVER ([…], time 28 day) of 16.9 g, an A/G ([…], time 7 day) of 1.1 and an ALP ([…], time 7 day) of 1475.8 IU/L. For the same compound, the ALT ([…], time 7 day) was 42.2 IU/L, the AST ([…], time 7 day) was 65 IU/L and the BUN ([…], time 7 day) was 20.4 mg/dL. For the same compound, the CRE ([…], time 7 day) was 0.2 mg/dL, the Ca ([…], time 7 day) was 10.7 mg/dL and the Cl ([…], time 7 day) was 105 meq/L. It also gave a DBIL ([…], time 7 day) of 0 mg/dL, a GLC ([…], time 7 day) of 200.4 mg/dL and an IP ([…], time 7 day) of 7.5 mg/dL. It also gave a K ([…], time 7 day) of 4.2 meq/L, an LDH ([…], time 7 day) of 152.8 IU/L and a Na ([…], time 7 day) of 141.4 meq/L. It also gave a PL ([…], time 7 day) of 152.6 mg/dL, an RALB ([…], time 7 day) of 3 g/dL and a TBIL ([…], time 7 day) of 0.002 mg/dL. The TC ([…], time 7 day) was 80.2 mg/dL, the TG ([…], time 7 day) was 113.4 mg/dL and the TP ([…], time 7 day) was 5.6 g/dL. For the same compound, the gamma-GTP ([…], time 7 day) was 2 IU/L, the A/G ([…], time 14 day) was 1.1 and the ALP ([…], time 14 day) was 1564.4 IU/L. For the same compound, the ALT ([…], time 14 day) was 45.6 IU/L, the AST ([…], time 14 day) was 68.8 IU/L and the BUN ([…], time 14 day) was 19 mg/dL. For the same compound, the CRE ([…], time 14 day) was 0.2 mg/dL, the Ca ([…], time 14 day) was 10.6 mg/dL and the Cl ([…], time 14 day) was 104.6 meq/L. The DBIL ([…], time 14 day) was 0 mg/dL, the GLC ([…], time 14 day) was 211.6 mg/dL and the IP ([…], time 14 day) was 7.1 mg/dL. The K ([…], time 14 day) was 4.2 meq/L, the LDH ([…], time 14 day) was 164.6 IU/L and the Na ([…], time 14 day) was 140.6 meq/L. For the same compound, the PL ([…], time 14 day) was 147.8 mg/dL, the RALB ([…], time 14 day) was 3 g/dL and the TBIL ([…], time 14 day) was 0.004 mg/dL. The TC ([…], time 14 day) was 70.2 mg/dL, the TG ([…], time 14 day) was 143 mg/dL and the TP ([…], time 14 day) was 5.8 g/dL. It also gave a gamma-GTP ([…], time 14 day) of 2.2 IU/L, an A/G ([…], time 28 day) of 0.9 and an ALP ([…], time 28 day) of 1046.8 IU/L. It also gave an ALT ([…], time 28 day) of 37.2 IU/L, an AST ([…], time 28 day) of 61.8 IU/L and a BUN ([…], time 28 day) of 19.2 mg/dL. The CRE ([…], time 28 day) was 0.2 mg/dL, the Ca ([…], time 28 day) was 10.5 mg/dL and the Cl ([…], time 28 day) was 104.2 meq/L. For the same compound, the DBIL ([…], time 28 day) was 0 mg/dL, the GLC ([…], time 28 day) was 194.8 mg/dL and the IP ([…], time 28 day) was 6.6 mg/dL. The K ([…], time 28 day) was 3.8 meq/L, the LDH ([…], time 28 day) was 132.8 IU/L and the Na ([…], time 28 day) was 143.2 meq/L. The PL ([…], time 28 day) was 135 mg/dL, the RALB ([…], time 28 day) was 3 g/dL and the TBIL ([…], time 28 day) was 0.01 mg/dL. It also gave a TC ([…], time 28 day) of 67.8 mg/dL, a TG ([…], time 28 day) of 133.6 mg/dL and a TP ([…], time 28 day) of 6.2 g/dL. The gamma-GTP ([…], time 28 day) was 2 IU/L.

— ChEMBL document CHEMBL3885861, “Open TG-GATES”
